Measurements reported in patent US5541181A, “Compound produced by a strain of micromonospora” (Bristol-Myers Squibb Company, priority 1994, dated 1996).
Converted amounts (≈) assume the structure as drawn. Read-outs that look alike come from different tables or passages of the source. Each block holds one molecule with its values, some of them ahead of it.

What was measured:
P388 leukemia = assay type: in vivo, mouse; conditions: ip; for T/C: ≥ 125 significantly active; for Avg Weight change on day 4: mouse, in vivo
Procedure: (§1) B16 melanoma was intraperitoneally (ip) inoculated with 0.5 ml of 10% brei per male BDF1 mouse, and P388 leukemia intraperitoneally inoculated with 10^6 cells per female CDF1 mouse. The test materials were intraperitoneally administered to the tumor-bearing mice by the following treatment schedules: once daily on days 1 to 3 (Q1D×3), once a day on days 1, 4, and 7 (Q3D×3) and once a day on days 1, 5 and 9 (Q4D×3).
(§2) The in vivo antitumor activity was determined in tumor-bearing mice.

B16 melanoma = assay type: in vivo, mouse; conditions: ip; for MST (Median survival time) / T/C: Q4D × 3; for Avg Weight change on day 5: mouse, in vivo
Procedure: as §1, §2

B16-F10 cells = experiment: In vitro cytotoxicity, B16-F10 (murine melanoma), neutral red, 72 hours; assay type: cell-based; conditions: for IC50: Mus musculus, B16-F10, 72 hours; for cytotoxicity: B16-F10, compared with BU-4664L
Procedure: (§3) In Vitro Cytoxicity. B16-F10 (murine melanoma) and Moser (human colorectal carcinoma) were grown in Eagle's minimum essential medium (Nissui) supplement with fetal calf serum (FCS, 10%) and kanamycin (60 μg/ml), HCT-116 (human colon carcinoma) cells were grown in McCoy's 5A Medium (Gibco) supplemented with FCS (10%), penicillin (100 u/ml) and streptomycin (100 μg/ml), and K562 (human myelogenous leukemia) were in RPM 11640 medium supplemented with FCS (10%), penicillin (100 u/ml) and streptomycin (100 μg/ml) at 37° C. under humidified atmosphere in a CO2 incubator. The exponentially growing B16-F10, Moser, K562 and HCT-116 cells were harvested, counted and suspended in the culture media at 1.5×10^4, 6×10^4, 3×10^4 and 8×10^4 cells/ml, respectively. The test materials were planted into the wells of 96 or 24-well tissue culture plate and for 72 hours. The cytotoxic activities were colorimetrically determined at 540 nm after staining viable cells with neutral red solution.

Moser cells = experiment: In vitro cytotoxicity, Moser (human colorectal carcinoma), neutral red, 72 hours; assay type: cell-based
Procedure: as §3

K562 cells = experiment: In vitro cytotoxicity, K562 (human myelogenous leukemia), neutral red, 72 hours; assay type: cell-based; conditions: K562, 72 hours
Procedure: as §3

5-lipoxygenase (5-LPO) = target: T1, 5-lipoxygenase (5-LPO) (Rattus norvegicus, UniProt P12527); experiment: 5-Lipoxygenase (5-LPO) inhibitory activity: 5-HETE produced in a cell-free extract of rat basophilic leukemia (RBL-1) cells; assay type: biochemical
T1 construct: produced in a cell-free extract of rat basophilic leukemia cells (RBL-1 cells, ATCC CRL 1378); endogenous in cells; host or cells: RBL-1 cells (rat basophilic leukemia), ATCC CRL 1378; cell-free extract
T1 sequence (P12527 1-673): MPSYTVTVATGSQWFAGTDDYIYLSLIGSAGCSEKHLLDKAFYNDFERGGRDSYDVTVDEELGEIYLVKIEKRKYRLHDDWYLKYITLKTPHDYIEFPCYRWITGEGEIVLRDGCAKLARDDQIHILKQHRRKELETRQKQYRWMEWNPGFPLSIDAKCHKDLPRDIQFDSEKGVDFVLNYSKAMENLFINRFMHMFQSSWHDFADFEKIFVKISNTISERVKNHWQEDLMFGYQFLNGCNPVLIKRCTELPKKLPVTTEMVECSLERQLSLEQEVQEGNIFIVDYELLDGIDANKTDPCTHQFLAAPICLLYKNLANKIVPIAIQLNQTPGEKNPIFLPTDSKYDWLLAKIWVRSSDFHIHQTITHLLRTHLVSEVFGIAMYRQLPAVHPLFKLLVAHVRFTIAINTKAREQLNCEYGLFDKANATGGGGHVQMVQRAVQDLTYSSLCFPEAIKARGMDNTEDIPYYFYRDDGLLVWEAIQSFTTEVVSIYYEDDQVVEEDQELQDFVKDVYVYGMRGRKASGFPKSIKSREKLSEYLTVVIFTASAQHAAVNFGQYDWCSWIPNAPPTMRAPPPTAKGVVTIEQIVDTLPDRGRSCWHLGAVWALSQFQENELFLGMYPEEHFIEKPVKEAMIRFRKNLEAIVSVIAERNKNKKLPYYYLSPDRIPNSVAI
Procedure: 20-Jar Fermentation. A 5-ml portion of the seed culture was transferred into a 500-ml Erlenmeyer flask containing 100 ml of the seed medium described above. Fermentation was carried out for 3 days at 28° C. and 200 rpm. This seed culture (500 ml) was inoculated into a 20-liter jar fermentor containing 12 liters of the production medium composed of soluble starch 2%, Pharmamedia (Trader's Protein) 1%, yeast extract 0.2%, ZnSO4 ·7H2 O 0.003% and CaCO3 0.4% (pH 7.0) and fermented for 3 days under the following conditions: temperature, 28° C.; aeration, 10 liters/minute; internal pressure, 0.5 kg/cm^2; agitation, 250 rpm. For preparation of an assay sample, a 3-ml of the whole broth was extracted with the same volume of n-butanol. After centrifugation, the solvent layer was evaporated to dryness and dissolved into the same volume of 10% dimethylsulfoxide (DMSO) solution. The solution was used as an assay sample.

HCT-116 cells = experiment: In vitro cytotoxicity, HCT-116 (human colon carcinoma), neutral red, 72 hours; assay type: cell-based; conditions: for IC50: Homo sapiens, HCT-116, 72 hours; for cytotoxicity: HCT-116, compared with BU-4664L
Procedure: as §3

[1] = tested on: K562, B16-F10 and Moser cells; experiment: In vitro cytotoxicity, range over K562, B16-F10 and Moser; assay type: cell-based, murine and human; conditions: vs K562, B16-F10 and Moser; read-out: IC50 (inhibited growth of tumor cell lines), range
Procedure: as §3

Solubility = assay type: physicochemical
[2] = Table 8, rat 5-LPO, read-out: IC50 (5-Lipoxygenase Inhibitory Activity)

Structure (SMILES): CO[C@@]12[C@H](COC(N)=O)C3=C(C(=O)C(C)=C(N)C3=O)N1C[C@@H]1N[C@@H]12 [Mitomycin C, reference compound]
MST (Median survival time) (P388 leukemia; 0.3 mg/kg/day, Q1D × 3): 12.5 days | T/C (P388 leukemia; 0.3 mg/kg/day, Q1D × 3): 119% | MST (Median survival time) (P388 leukemia; 1 mg/kg/day, Q1D × 3): 16.0 days | T/C (P388 leukemia; 1 mg/kg/day, Q1D × 3): 152% | MST (Median survival time) (P388 leukemia; 3 mg/kg/day, Q1D × 3): 21.0 days | T/C (P388 leukemia; 3 mg/kg/day, Q1D × 3): 200% | Avg Weight change on day 4 (P388 leukemia; 0.3 mg/kg/day): +0.3 g | Avg Weight change on day 4 (P388 leukemia; 1 mg/kg/day): 0.0 g | Avg Weight change on day 4 (P388 leukemia; 3 mg/kg/day): -1.5 g | MST (Median survival time) (B16 melanoma; 0.5 mg/kg/day): 16.0 days | T/C (B16 melanoma; 0.5 mg/kg/day): 123% | MST (Median survival time) (B16 melanoma; 1 mg/kg/day): 22.5 days | T/C (B16 melanoma; 1 mg/kg/day): 173% | MST (Median survival time) (B16 melanoma; 2 mg/kg/day): 26.7 days | T/C (B16 melanoma; 2 mg/kg/day): 204% | Avg Weight change on day 5 (B16 melanoma; 0.5 mg/kg/day): +0.8 g | Avg Weight change on day 5 (B16 melanoma; 1 mg/kg/day): +0.5 g | Avg Weight change on day 5 (B16 melanoma; 2 mg/kg/day): +0.3 g

Structure (SMILES): CC(C)=CCC/C(C)=C/CC/C(C)=C/CN1c2cc(O)cc(O)c2NC(=O)c2cccc(O)c21 [BU-4664L, 5-farnesyl-4,7,9-trihydroxy dibenzo[b,e][1,4]diazepin-11-one]
IC50 (B16-F10 cells): 1.9 µg/mL (≈ 4.11 µM) | T/C values against P388 leukemia (P388 leukemia): good T/C values | survival time of mice inoculated with P388 (P388 leukemia): significant prolongation of the survival time | MST (Median survival time) (P388 leukemia; 0.3 mg/kg/day, Q1D × 3): 12.0 days | T/C (P388 leukemia; 0.3 mg/kg/day, Q1D × 3): 120% | MST (Median survival time) (P388 leukemia; 1 mg/kg/day, Q1D × 3): 11.0 days | T/C (P388 leukemia; 1 mg/kg/day, Q1D × 3): 110% | MST (Median survival time) (P388 leukemia; 1 mg/kg/day, Q3D × 3): 11.9 days | T/C (P388 leukemia; 1 mg/kg/day, Q3D × 3): 119% | MST (Median survival time) (P388 leukemia; 3 mg/kg/day, Q1D × 3): 13.0 days | T/C (P388 leukemia; 3 mg/kg/day, Q1D × 3): 130% | MST (Median survival time) (P388 leukemia; 3 mg/kg/day, Q3D × 3): 15.2 days | T/C (P388 leukemia; 3 mg/kg/day, Q3D × 3): 152% | MST (Median survival time) (P388 leukemia; 10 mg/kg/day, Q1D × 3): 15.0 days | T/C (P388 leukemia; 10 mg/kg/day, Q1D × 3): 150% | MST (Median survival time) (P388 leukemia; 10 mg/kg/day, Q3D × 3): 16.2 days | T/C (P388 leukemia; 10 mg/kg/day, Q3D × 3): 162% | MST (Median survival time) (P388 leukemia; 30 mg/kg/day, Q1D × 3): 16.0 days | T/C (P388 leukemia; 30 mg/kg/day, Q1D × 3): 160% | MST (Median survival time) (P388 leukemia; 30 mg/kg/day, Q3D × 3): 12.5 days | T/C (P388 leukemia; 30 mg/kg/day, Q3D × 3): 152% | Avg Weight change on day 4 (P388 leukemia; 0.3 mg/kg/day): +0.5 g | survival time of mice inoculated with B16 melanoma (B16 melanoma): significant prolongation of the survival time | MST (Median survival time) (B16 melanoma; 3 mg/kg/day): 16.5 days | T/C (B16 melanoma; 3 mg/kg/day): 127% | MST (Median survival time) (B16 melanoma; 10 mg/kg/day): 17.5 days | T/C (B16 melanoma; 10 mg/kg/day): 135% | MST (Median survival time) (B16 melanoma; 30 mg/kg/day): 17.0 days | T/C (B16 melanoma; 30 mg/kg/day): 131% | activity against B16 melanoma in terms of minimum effective dose (B16 melanoma; compared with Mitomycin C): weaker than Mitomycin C | Avg Weight change on day 5 (B16 melanoma; 3 mg/kg/day): +0.3 g | Avg Weight change on day 5 (B16 melanoma; 10 mg/kg/day): +0.3 g | Avg Weight change on day 5 (B16 melanoma; 30 mg/kg/day): -0.8 g | IC50 (Moser cells): 18 µg/mL (≈ 38.9 µM) | IC50 (K562 cells): 1.1 µg/mL (≈ 2.38 µM) | 5-LPO inhibitory activity (5-lipoxygenase (5-LPO); rat 5-LPO): good 5-LPO inhibitory activity | IC50 (5-lipoxygenase (5-LPO); rat 5-LPO, read-out: IC50 (5-LPO inhibitory activity)): 1.7 µM | IC50 (HCT-116 cells): 2.6 µg/mL (≈ 5.62 µM) | IC50 [1]: 1.1 to 18 µg/mL (≈ 2.38 to 38.9 µM) | solubility (Solubility; chloroform): slightly soluble | solubility (Solubility; dimethyl sulfoxide): soluble | solubility (Solubility; ethanol): soluble | solubility (Solubility; ethyl acetate): soluble | solubility (Solubility; methanol): soluble | solubility (Solubility; n-hexane): insoluble | solubility (Solubility; water): insoluble

IC50 (5-lipoxygenase (5-LPO); [2]): > 39.6 µM
Structure (SMILES): COc1cc(OC)c2c(c1)N(C/C=C(\C)CC/C=C(\C)CCC=C(C)C)c1c(OC)cccc1C(=O)N2 [Trimethyl BU-4664L]
cytotoxicity (B16-F10 cells): weaker cytotoxicity | IC50 (B16-F10 cells): 21 µg/mL (≈ 41.6 µM) | 5-LPO inhibitory activity (5-lipoxygenase (5-LPO); rat 5-LPO): seemed to be devoid of 5-LPO inhibitory activity | cytotoxicity (HCT-116 cells): weaker cytotoxicity | IC50 (HCT-116 cells): 12.5 µg/mL (≈ 24.8 µM)

IC50 (5-lipoxygenase (5-LPO); [2]): > 34 µM
Structure (SMILES): CC(=O)Oc1cc(OC(C)=O)c2c(c1)N(C/C=C(\C)CC/C=C(\C)CCC=C(C)C)c1c(OC(C)=O)cccc1C(=O)N2 [Triacetyl BU-4664L]
cytotoxicity (B16-F10 cells): weaker cytotoxicity | IC50 (B16-F10 cells): 2.4 µg/mL (≈ 4.08 µM) | 5-LPO inhibitory activity (5-lipoxygenase (5-LPO); rat 5-LPO): seemed to be devoid of 5-LPO inhibitory activity | cytotoxicity (HCT-116 cells): weaker cytotoxicity | IC50 (HCT-116 cells): 4.4 µg/mL (≈ 7.47 µM)
